Read-outs that look alike come from different tables or passages of the source.

The assay deals with T1, urokinase enzyme Abbokinase (Homo sapiens, UniProt P00749).
T1 construct: purchased Abbott Laboratories, Abbott Park, Ill
The experiment in a line: Determination of urokinase inhibition (Abbokinase, chromogenic substrate S-2444). It is filed as biochemical. The settings on record: substrate S-2444 at 200 μM, enzyme 2-3 nM, pH 7.4, 405 nm.

[1] abbreviates: IC50, Inhibitory potency against urokinase.
The mark [2] stands for this setting: Inhibitory potency against urokinase, read-out: IC50.

Procedure: Several vials were reconstituted as directed on the vial, aliquoted and stored frozen. The enzyme was further diluted in assay buffer and 10 μl was used in the assay. Enzyme concentration in the assay was 2-3 nM. […] The Spectromax® calculated the reaction rates which were used to calculate percent inhibition of the compounds of this invention versus the reaction rate of the enzyme in the absence of any inhibitor. The Ki's of the inhibitors were calculated from the percent inhibition and previously established Km.

For `N=C(N)c1ccc2cc(-c3ncc(-c4ccccc4)o3)ccc2c1` [Example 144, 6-(5-phenyl-2-oxazolyl)-2-naphthalenecarboximidamide], under setting [1], half-maximal inhibition (IC50) required 1260 nM.
“4-[[[7-(aminoiminomethyl)-1-(2-pyrimidinylamino)-2-naphthalenyl]oxy]methyl]benzoic acid [Example 134]”: the IC50 (in general, the concentration that inhibits the measured activity by half) under setting [2] is 64 nM.
The same measure, in the same setting: in the case of “N-(6-aminoiminomethyl-2-naphthalenyl)-N′-benzyloxyurea [Example 75]” it was 2090 nM; in that of `Cc1cc(NC(=O)c2ccc3cc(C(=N)N)ccc3c2)no1` [Example 192], 1600 nM; in that of `N=C(N)c1ccc2cc(C(=O)Nc3ccccc3)cc(C3CCCN3)c2c1` (stereo not drawn) [Example 207, 6-(aminoiminomethyl)-N-phenol-4-(2-pyrrolidinyl)-2-naphthalenecarboxamide], 4120 nM.
Still for that read-out and setting: in the case of “6-(aminoiminomethyl)-4-[1-(methylsulfonyl)-1H-pyrazol-4-yl]-N-phenyl-2-naphthalenecarboxamide [Example 153]” it was 877 nM; in that of “6-(aminoiminomethyl)-N-(4-methylphenyl)-2-naphthalenecarboxamide [Example 132]”, 960 nM; in that of “8-(carbonylbenzyloxy)amino-2-naphthalenecarboximidamide [Example 14]”, 330 nM.
As to “6-(aminoiminomethyl)-4-[5-(propylsulfonyl)-3-furanyl]-N-phenyl-2-naphthalenecarboxamide [Example 228]”, the IC50 under setting [2] is 25 nM.
With `COc1ccc2ccc(C(=N)N)cc2c1Sc1ccccc1` [Example 149, 7-methoxy-8-(phenylthio)-2-naphthalenecarboximidamide], under setting [1], 3800 nM corresponded to half-maximal inhibition (IC50).
Take “6-(aminoiminomethyl)-N-[3-(1-methylethoxy)phenyl]-2-naphthalenecarboxamide [Example 211]”: under setting [2], the IC50 stood at 72 nM.
In turn, `NC(=NO)c1ccc2cc(C(=O)Nc3ccccc3)ccc2c1` [Example 171] yielded a half-inhibitory concentration (IC50) under setting [1] of more than 30000 nM.
Turning to “N-[6-(aminoiminomethyl)-2-naphthalenyl)benzamide [Example 136]”, the IC50 under setting [2] was found to be 1670 nM.
The same measure, in the same setting: in the case of “6-(aminoiminomethyl)-4-(3-furanyl)-N-(1H-pyrazol-3-yl)-2-naphthalenecarboxamide [Example 116]” it was 45 nM; in that of `N=C(N)c1ccc2cc(C#CCNC(=O)c3cccc(N)c3)ccc2c1` [Example 35], 3970 nM.
Consider “[(7-aminoiminomethyl-2-methoxy-1-naphthalenyl)oxy]acetic acid [Example 7]”, for which, under setting [2], the IC50 worked out at 3500 nM.
Same read-out and setting: in the case of “N-[7-(aminoiminomethyl)-1-naphthalenyl]-N′-methylurea [Example 157]” it was 3120 nM.
Consider `CCSC1CC(c2cc(C(=O)Nc3ccccc3)cc3ccc(C(=N)N)cc23)CO1` (stereo not drawn) [Example 232, 6-(aminoiminomethyl)-4-[5-(ethythio)tetrahydro-3-furanyl]-N-phenyl-2-naphthalenecarboxamide], for which the IC50 under setting [2] came to 123 nM.
For the compound `N=C(N)c1ccc2cc(C3CC3c3ccc(CO)cc3)ccc2c1` (stereo not drawn) [Example 215, 6-[2-[4-(hydroxymethyl)phenyl]-1-cyclopropyl]-2-naphthalenecarboximidamide], half-maximal inhibition under setting [1] (IC50) required 1100 nM.
“N-[3-(methyl)phenyl]-6-aminoiminomethyl-2-naphthalenecarboxamide [Example 48]”: the IC50 under setting [2] is 1300 nM.
For “N-(6-aminoiminomethyl-2-naphthalenyl)-N′-phenylurea [Example 40]”, the IC50 under setting [2] came to 310 nM.
Regarding `N=C(N)c1ccc2cc(C#CCCc3ccccc3)ccc2c1` [Example 28, 6-(4-Phenylbutynyl)-2-naphthalenecarboximidamide], the IC50 under setting [2] came to 2100 nM.
For the compound “4-[[6-(aminoiminomethyl)-2-naphthalenyl]ethynyl]-L-phenylalanine [Example 109]”, under setting [2], the IC50 came to 2850 nM.
Take “6-(aminoiminomethyl)-N-(5-pyrimidinyl)-2-naphthalenecarboxamide [Example 208]”: the IC50 under setting [2] worked out at 960 nM.

The values are drawn from patent US20010049374A1 (priority 1997, published 2001).
